Experimental data published in ChEMBL document CHEMBL1158233, “Cytotoxic Cembranoids from the Soft Corals Sinularia gibberosa and Sarcophyton trocheliophorum” (1996).
≈ marks a conversion by molar mass, not a printed value.

How the values were obtained:
Assay type in all cases: functional
KB = assay: Cytotoxicity against human KB cells after 3 days by MTT assay; conditions: 72 h, read-out: ED50 (the source's name)
P388 = assay: Cytotoxicity against mouse P388 cells after 3 days by MTT assay; conditions: P388, 72 h, read-out: ED50 (the source's name)
A549 = assay: Cytotoxicity against human A549 cells after 6 days by MTT assay; conditions: A549, 144 h, read-out: ED50 (the source's name)
HT-29 = assay: Cytotoxicity against human HT29 cells after 6 days by MTT assay; conditions: HT-29, 144 h, read-out: ED50 (the source's name)

**Q.** How did the EC50 (KB) turn out when `CC1=C2CC/C(C)=C/CC[C@]3(C)O[C@H]3CC/C(C)=C/[C@@H]2OC1=O` [SARCOPHINE] was run?
**A.** > 50 µg/mL

**Q.** And the EC50 (P388)?
**A.** 2.42 µg/mL (≈ 7.65 µM)

**Q.** What about the EC50 (A549) of the same molecule?
**A.** 10.4 µg/mL (≈ 32.8 µM)

**Q.** And the EC50 (HT-29)?
**A.** 10.5 µg/mL (≈ 33.1 µM)

**Q.** How did the EC50 (KB) turn out when `CC1=C2CC/C(C)=C/CC[C@@](C)(O)[C@@H](O)CC/C(C)=C/[C@@H]2OC1=O` was run?
**A.** > 50 µg/mL

**Q.** What about the EC50 (P388) of the same molecule?
**A.** 3.27 µg/mL (≈ 9.78 µM)

**Q.** What about the EC50 (A549) of the same molecule?
**A.** 24.7 µg/mL (≈ 73.7 µM)

**Q.** What about the EC50 (HT-29) of the same molecule?
**A.** 22.9 µg/mL (≈ 68.4 µM)

**Q.** For `C/C1=C\CCC(C)(O)C2C=C(C(C)(C)O)C(C/C(C)=C/CC1)O2` (stereo not drawn), which EC50 (KB) is on record?
**A.** 17.1 µg/mL (≈ 53.4 µM)

**Q.** What about the EC50 (P388) of the same molecule?
**A.** 0.23 µg/mL (≈ 0.718 µM)

**Q.** And the EC50 (A549)?
**A.** 1.7 µg/mL (≈ 5.3 µM)

**Q.** What about the EC50 (HT-29) of the same molecule?
**A.** 1.81 µg/mL (≈ 5.65 µM)

**Q.** Which results are given for `CC1=C2CC/C(C)=C/CC[C@]3(C)O[C@H]3CC/C(C)=C/[C@@H]2OC1`?
**A.** EC50 (KB): > 50 µg/mL; EC50 (P388): 3.87 µg/mL (≈ 12.8 µM); EC50 (A549): 15.7 µg/mL (≈ 52 µM); EC50 (HT-29): 16.1 µg/mL (≈ 53.1 µM)

**Q.** Which EC50 (KB) does the source give for `C/C1=C\C=C(\C(C)(C)O)C(O)C/C(C)=C/CC/C(C)=C/CC1` (stereo not drawn) here?
**A.** 14.9 µg/mL (≈ 49 µM)

**Q.** What about the EC50 (P388) of the same molecule?
**A.** 1.54 µg/mL (≈ 5.06 µM)

**Q.** And the EC50 (A549)?
**A.** 20.2 µg/mL (≈ 66.2 µM)

**Q.** What about the EC50 (HT-29) of the same molecule?
**A.** 0.29 µg/mL (≈ 0.952 µM)

**Q.** What does the source list for `C/C1=C\C=C(\C(C)(C)O)CC[C@@]2(C)O[C@@H]2CC/C(C)=C/CC1`?
**A.** EC50 (KB): 0.63 µg/mL (≈ 2.07 µM); EC50 (P388): 0.01 µg/mL (≈ 0.0328 µM); EC50 (A549): 1.03 µg/mL (≈ 3.38 µM); EC50 (HT-29): 0.64 µg/mL (≈ 2.1 µM)

**Q.** `COC(C)(C)/C1=C/[C@H]2O[C@]2(C)CC/C=C(\C)CC[C@H]2O[C@]2(C)CC1` was tested. Which EC50 (KB) did it give?
**A.** > 50 µg/mL

**Q.** What about the EC50 (P388) of the same molecule?
**A.** 3.26 µg/mL (≈ 9.75 µM)

**Q.** And the EC50 (A549)?
**A.** > 50 µg/mL

**Q.** What about the EC50 (HT-29) of the same molecule?
**A.** 0.36 µg/mL (≈ 1.08 µM)
